Read-outs that look alike come from different tables or passages of the source. Marks after values point to notes of the source that are not given here.
What was measured:
[1] = Plasma compound concentration in the in vivo efficacy study; details: mice; for concentration at 1 h / concentration at 6 h / concentration at 24 h: NIH, mouse, plasma; for concentration at 1 h: 1 h post last dose on Day 3; for concentration at 6 h: 6 h post last dose on Day 3; for concentration at 24 h: 24 h post last dose on Day 3
[2] = Human Plasma Protein Binding (hPPB) assay; type: in vitro ADME; details: rapid equilibrium dialysis
Procedure: Human Plasma Protein Binding (hPPB) of test compounds was measured by rapid equilibrium dialysis device using the RED Device Inserts. In the reaction of 5 h, the drug concentration of the sample chamber and buffer chamber can be determined, through which we can calculated hPPB of test compounds. RED Device Inserts and Single-Use RED Base Plate were purchased from the Linden Bioscience, Woburn, Mass. (Taiwan, Thermo scientific). […]. Pooled human plasma from healthy individuals in this study was obtained from the Southern Medical University (China) and was stored frozen at −20° C. until use. SHZ-88A Reciprocating thermostatic oscillator was purchased from Taicang City Experimental Equipment Co. (China). Chlorpromazine (>99% in purity, positive control) and Phenacetin (>99% in purity, internal standard, IS) were all purchased from the Sigma Chemical Co. (China). Chlorpromazine HCl was used as a positive control. An aliquot ([…]) of plasma was accurately added into the sample chamber, and 6 μL compounds solution (500 μM, 50% DMSO) was added (n=3). An aliquot (500 μL) of Dulbecco solution was added into the buffer chamber. These solution were all oscillated for 5 hours (37° C., 90 rpm). Then, 50 μL solution in sample chamber was removed, 50 μL Dulbecco solution was added, and mixed. Also, 50 μL solution in buffer chamber was removed, 50 μL plasma was added, and mixed. 200 μL ACN (including internal Standard, 100 ng/mL) were added separately, oscillated, mixed, and centrifuged (20 min, 15000 g). An aliquot (50 μL) of the supernatant was accurately transferred to a clean 1.5 mL test tube and 100 μL H2O was added, mixed. 10 μL of mixture was separately injected into LC-MS system for determination of the drug concentration in the sample chamber and buffer chamber. The data were analyzed using the following equation: % hPPB=[1−(Concentrationbuffer chamber/Concentrationplasma chamber)]*100% (Barre, et al., 1985, which is incorporated herein by reference).

recombinant human BACE1 = recombinant human BACE1 (Homo sapiens, UniProt P56817); test: β-Secretase (BACE1) enzyme inhibition FRET assay; type: biochemical
Procedure: The enzymatic inhibition activity assays were determined using the fluorescence resonance energy transfer (FRET) assay. The assays were performed in a 384-well plate format. […] CatD and CatE were activated by incubation in assay buffer (0.1 M NaOAc, 0.2 M NaCl, pH 3.5) at room temperature for 30 min. Subsequently, the rhBACE-1 substrate (R&D Systems, catalog# ES004), the Cathepsin D and Cathepsin E substrate (R&D Systems, Catalog # ES001) were added accordingly to final concentration 20 μM to initiate the reaction. After 60 min incubation at room temperature, the time-resolved fluorescence at Ex/Em=360 nm/460 nm was measured on an EnVision multilabel plate reader (Perkin-Elmer). The analytical software, GraphPad Prism 5.0 (GraphPad Software, Inc., USA) was used to generate IC50 values via non-linear regression analysis, which are reported in Tables 8-13 below as BACE1 IC50 values.

[3] = target: Plasmepsin (PM-4; Plm IV) (Plasmodium falciparum (isolate 3D7), UniProt Q8IM16); test: Plasmepsin-4 enzyme inhibition assay; type: biochemical; details: Table 8
Procedure: Plasmepsin-2 (PM-2; Plm II) and Plasmepsin (PM-4; Plm IV) expression and purification was performed following the published protocols (Istvan E S and Goldberg D E, 2005). The final purified protein was activated by diluting the protein to 0.3 mg/mL in activating buffer (0.1 M citrate pH 4.5, 0.1% Tween-20, 50 mM dithiothreitol) and incubated at room temperature for 40 min, then the activated enzyme was diluted in assay buffer (50 mM sodium acetate pH 4.7, 0.01% Tween-20). The enzymatic inhibition reaction was performed in 384 well plates with a total volume of 20 μl. 10 μl of diluted PM-2 or PM-4 enzyme was added to the 384-well plate except blank wells (blank wells add 10 μL of assay buffer) and 20 nL of serials of diluted 1000× compounds were added to the wells with 520 Echo® Liquid Handling System (Labcyte Inc.). 10 μL PM-2 peptide substrate (AnaSpec, Cat#, 62050) with assay buffer was then added to final concentration of 20 μM to start the reaction. After incubation the reaction at room temperature for 60 min, the fluorescence intensity at Ex/Em=360 nm/535 nm was measured using EnVision multilabel plate reader (Perkin-Elmer). The IC50 values were obtained using Graph Pad Prism 4 and are reported in Tables 8 and 9 below as PM-2 IC50 values.

HepG2 cells = test: HepG2 cytotoxicity assay; type: cell-based; details: Homo sapiens, 72 hours
Procedure: HepG2 cells (ATCC Cat. No. HB-8065) were maintained in DMEM supplemented with 10% fetal bovine serum and L-glutamine. Cells were grown at 37° C. and 5% CO2 on flasks coated with poly-d-lysine. To assess compounds for potential cytotoxic properties cells were plated at 10,000 cells per well on 96-well poly-d-lysine plates at 10,000 cells per well. HepG2 cells were allowed to adhere for at least 4 hours prior to application of test compounds. Cells were incubated with test compounds for 72 hours before measuring cellular viability. Cellular viability was measured using PrestoBlue® Cell Viability Reagent (Life Technologies). Briefly, 11 μL of 10× PrestoBlue reagent was added to 100 μl in each assay well. Cells were incubated at 37° C. and 5% CO2 for 30 minutes prior to reading on Tecan Safire2, excitation at 560 nm, 10 nm bandwidth and emission at 590 nm, 10 nm bandwidth. GraphPad Prism 5.0 (GraphPad Software, Inc., USA) was used to generate IC50 values via non-linear regression analysis.

[4] = test system: Plasmodium chabaudi ASS and ASCQ strains; test: In vivo antimalarial efficacy 4-day suppressive test; details: NIH mice, Day 4 postinoculation
Procedure: Briefly, NIH mice (n=8 per group) were inoculated i.p. with 2×10^7 parasitized (Plasmodium chabaudi ASS or ASCQ) red blood cells. […] Groups (n=6) including a vehicle control and chloroquine (CQ) as a reference drug were included. Parasitemia levels were determined on the day following the last treatment (Day 4).

[5] = target: Plasmepsin-2 (PM-2; Plm II) (Plasmodium falciparum (isolate HB3), UniProt P46925); test: Plasmepsin-2 enzyme inhibition assay; type: biochemical
Method in brief: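 Enzymes activated in pH 4.5 citrate/DTT buffer, then assayed in 50 mM sodium acetate pH 4.7, 0.01% Tween-20. Compounds added before fluorogenic peptide substrate (final 20 µM); 60 min at room temperature, fluorescence Ex/Em 360/535 nm, IC50 by curve fit.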

[6] = 100 mpk orally once daily for four days

Chain of recombinant human BACE1 (P56817 46-501 limits assumed): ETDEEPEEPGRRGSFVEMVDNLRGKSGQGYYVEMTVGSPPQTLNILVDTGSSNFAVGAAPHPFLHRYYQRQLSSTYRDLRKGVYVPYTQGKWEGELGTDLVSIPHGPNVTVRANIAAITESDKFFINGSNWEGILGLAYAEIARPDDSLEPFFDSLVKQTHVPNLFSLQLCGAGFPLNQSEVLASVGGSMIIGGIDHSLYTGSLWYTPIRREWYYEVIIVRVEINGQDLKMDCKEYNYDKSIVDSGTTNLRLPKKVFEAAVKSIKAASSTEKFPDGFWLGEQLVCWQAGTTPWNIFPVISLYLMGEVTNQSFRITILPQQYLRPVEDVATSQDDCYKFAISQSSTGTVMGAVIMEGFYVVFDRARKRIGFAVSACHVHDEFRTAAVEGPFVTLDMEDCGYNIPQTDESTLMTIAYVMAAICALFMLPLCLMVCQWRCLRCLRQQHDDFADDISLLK
Chain of Plasmepsin-2 (PM-2; Plm II) (P46925 125-453 limits assumed): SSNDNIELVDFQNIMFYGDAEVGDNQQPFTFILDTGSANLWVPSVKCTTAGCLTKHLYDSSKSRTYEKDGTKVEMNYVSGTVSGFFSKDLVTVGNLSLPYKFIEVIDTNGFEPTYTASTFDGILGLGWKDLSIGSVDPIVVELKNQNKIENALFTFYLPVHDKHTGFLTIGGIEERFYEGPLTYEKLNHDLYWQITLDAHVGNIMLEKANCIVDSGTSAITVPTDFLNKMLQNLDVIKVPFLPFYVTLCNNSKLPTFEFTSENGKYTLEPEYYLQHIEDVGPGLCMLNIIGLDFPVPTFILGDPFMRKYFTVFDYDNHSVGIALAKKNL
Chain of Plasmepsin (PM-4; Plm IV) (Q8IM16 122-449 limits assumed): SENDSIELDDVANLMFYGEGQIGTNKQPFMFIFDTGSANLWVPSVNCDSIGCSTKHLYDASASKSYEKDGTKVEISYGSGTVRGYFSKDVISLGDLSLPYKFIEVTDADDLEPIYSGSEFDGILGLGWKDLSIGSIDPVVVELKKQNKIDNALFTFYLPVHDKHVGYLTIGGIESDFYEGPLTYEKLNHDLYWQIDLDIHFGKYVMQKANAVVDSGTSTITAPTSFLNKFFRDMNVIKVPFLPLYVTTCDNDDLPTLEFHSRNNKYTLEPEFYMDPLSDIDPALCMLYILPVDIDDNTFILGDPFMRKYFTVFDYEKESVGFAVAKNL

Compound `COc1ccc(C2(c3ccc(OC)cc3)NC(=N)N(C3CCN(C(=O)OC(C)(C)C)CC3)C2=O)cc1` [Example 206, tert-butyl 4-[2-imino-4,4-bis(4-methoxyphenyl)-5-oxoimidazolidin-1-yl]piperidine-1-carboxylate] has a concentration at 1 h ([1]; 100 mg/kg, 100 mpk oral) of 2520 ng/mL, a concentration at 6 h ([1]; 100 mg/kg, 100 mpk oral) of 2190 ng/mL and a concentration at 24 h ([1]; 100 mg/kg, 100 mpk oral) of 7 ng/mL. The “hPPB (%)” value [2] was 99.7%, the IC50 (recombinant human BACE1; Table 8, read-out: BACE IC50) was 6010 nM and the IC50 [3] was 10 nM. The IC50 (HepG2 cells) was 8000 nM, the “% Inhibition of parasitemia” value [4, 6] was 73% and the IC50 ([5]; Table 8, read-out: PM-II IC50) was 2 nM. It also gave an IC50 ([5]; Table 13, read-out: PM-2 IC50) of 2.76 nM.

Compound `COc1ccc(C2(c3ccc(OC)cc3)NC(=N)N(CC3CCOCC3)C2=O)cc1` [Example 275, 2-imino-5,5-bis(4-methoxyphenyl)-3-(oxan-4-ylmethyl)imidazolidin-4-one] has a concentration at 1 h ([1]; 100 mg/kg, 100 mpk oral) of 10400 ng/mL, a concentration at 6 h ([1]; 100 mg/kg, 100 mpk oral) of 3030 ng/mL and a concentration at 24 h ([1]; 100 mg/kg, 100 mpk oral) of 123 ng/mL. For the same compound, the “hPPB (%)” value [2] was 88.7%, the IC50 (recombinant human BACE1; Table 8, read-out: BACE IC50) was 2070 nM and the IC50 (recombinant human BACE1; Table 13, read-out: BACE1 IC50) was 2070 nM. The IC50 [3] was 59 nM, the IC50 (HepG2 cells) was 30000 nM and the “% Inhibition of parasitemia” value [4, 6] was 41%. It also gave an IC50 ([5]; Table 8, read-out: PM-II IC50) of 17 nM and an IC50 ([5]; Table 13, read-out: PM-2 IC50) of 16.9 nM.

In the case of `COc1ccc(C2(c3ccc(OC)cc3)NC(=N)N(C3CCOCC3)C2=O)cc1` [Example 176, 2-imino-5,5-bis(4-methoxyphenyl)-3-(oxan-4-yl)-imidazolidin-4-one], the concentration at 24 h ([1]; 110 mg/kg, 110 mpk oral) is reported as 29 ng/mL, the “Plasma [compound] (ng/mL), determined at 30 min post dose” value ([1]; 110 mpk oral, 30 min post last dose on Day 3) is reported as 4140^e ng/mL and the “hPPB (%)” value [2] is reported as 78.1%. For the same compound, the IC50 (recombinant human BACE1; Table 8, read-out: BACE IC50) was ~10000 nM, the IC50 (recombinant human BACE1; Table 13, read-out: BACE1 IC50) was ~10100 nM and the IC50 [3] was 18 nM. The IC50 (HepG2 cells) was > 50000 nM, the “% Inhibition of parasitemia” value ([4]; 110 mpk orally once daily for four days) was 63% and the IC50 ([5]; Table 8, read-out: PM-II IC50) was 7 nM. It also gave an IC50 ([5]; Table 13, read-out: PM-2 IC50) of 6.81 nM.
